Source: patent publication US10570168B2, “2′ and/or 5′ amino-acid ester phosphoramidate 3′-deoxy adenosine derivatives as anti- cancer compounds” (NuCana plc, priority 2014, dated 2020)
Read-outs that look alike come from different tables or passages of the source.

How the values were obtained:
CCRF-CEM = assay: CellTiterGlo viability assay, initial screening; type: cell-based; details: Homo sapiens, read-out: IC50 (relative IC50)
How it was run: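 Under standard growth conditions with 0.5% final DMSO, cells received pre-warmed compound-containing media over nine 3.16-fold dilutions reaching 19.9 nM. After roughly 72 hr, CellTiter-Glo was used to quantify viability; all treatments were done in duplicate.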

K562 (TdT negative) = assay: ATP (ViaLight plus) cytotoxicity assay; type: cell-based, Human; details: for IC50: Homo sapiens; for (FD) fold difference compared to Cordycepin = Cordycepin IC50/ProTide IC50: K562
Protocol: (§1) Certain compounds of the invention were subjected to further studies to test the cytotoxic activity of certain compounds of the invention and also to measure their activity against 4 haematological cancer cell lines • TdT positive CEM (Human ALL) • TdT negative K562 (Human CML) • TdT negative H1-60 (Human ANLL) • RL (CRL-2261) non-HD lymphoma • The concentrations of the active metabolite dATP (Cordycepin triphosphate) in these cell lines was also measured. • The cytotoxic activity and the intracellular 3′-dATP concentrations were also studied in the presence of hENT1, Adenosine Kinase (AK) and Adenosine Deaminase pharmacological inhibitors in CEM and RL cancer cell lines. Said inhibitors that mimic known cancer resistance mechanisms. Methods Cell Culture
(§2) HL-60 (ATCC® CCL-240™), K562 (ATCC® CCL-243™), CCRF-CEM (ATCC® CRM-CCL-119™) and RL (ATCC® CRL-2261™) leukaemia cell lines, obtained from the American Type Culture Collection (ATCC), Middlesex. HL-60 and K562 cell lines are deoxynucleotidyl transferase-negative (TdT-ve), whereas CCRF-CEM cell line is TdT+ve.
(§3) HL-60, K562, CCRF-CEM and RL cell lines were cultured in RPMI-1640 medium (Sigma Aldrich, UK), which were supplemented with 10% Fetal Bovine Serum (FBS) (PAA Laboratories), 1% amphotericin B (5.5 ml) and 1% penicillin/streptomycin (5.5 ml) (PAA Laboratories) and grown in flasks at 37° C. incubator with 5% CO2.
(§4) The amount of ATP was used as a measurement of cell number and cell viability. ATP ViaLight™ plus assay kit (Lonza, USA: Product No. LT07-121) to detect ATP in cells treated in luminescence compatible 96 well plates (initial concentration of cells was 1×10^4 cells/well) with cordycepin and ProTides at concentrations of: 0, 0.1, 0.5, 1, 5 and 10 μM, followed by incubation for 72 hours at 37° C. incubator with 5% CO2. For inhibitor studies, 10 μM of NBTI or 1 μM EHNA or A-134974 was added and left for 5 minutes before adding the drugs (see section 5 for inhibitor details).
(§5) After incubation, 50 μl of cell lysis reagent was added to the 96 well plates to release the intracellular ATP, followed by 100 μl of ATP monitoring reagent (AMR). The luminescent values of each well were determined using FLUOstar OPTIMA microplate reader (BMG Labtech) which convert ATP into light by using luciferase enzyme. Therefore, the amount of luminescence produced was directly proportional to the amount of ATP.
(§6) The dose-response curves of cytotoxicity of the drugs was determined using non-linear regression analysis of percentage cell viability versus concentration and EC50 values were obtained. The intracellular assay was conducted in five replicates for each condition. Intracellular assay was determined using paired t test (two-tailed) analysis of 3′ATP/ATP concentration and p-values were obtained. For all the analysis, Prism Software program (GraphPad Software) was used and Microsoft Powerpoint® 2013 was used to plot the results.

HL-60 (TdT negative) = assay: ATP (ViaLight plus) cytotoxicity assay; type: cell-based, Human; details: for (FD) fold difference compared to Cordycepin = Cordycepin IC50/ProTide IC50: HL-60; for IC50: Homo sapiens
Protocol: as §1, §2, §3, §4, §5, §6

RPMI-8226 = assay: Solid tumour and haematological malignancy assay (CellTiterGlo); type: cell-based; details: Homo sapiens; for IC50: read-out: IC50 (absolute IC50); for Emax: read-out: MI %
How it was run: (§7)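 Cells were exposed to compound for 72 hr under standard growth conditions, and viability was then read by CellTiterGlo luminescence. Treatment used a 9-point, 3.16-fold titration in duplicate, with a lowest final concentration of 19.9 nM and 0.5% final DMSO.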

RL = assay: as above; type: cell-based; details: Homo sapiens; for IC50: read-out: IC50 (absolute IC50); for Emax: read-out: MI %
How it was run: as §7

MV4-11 = assay: as above; type: cell-based; details: Homo sapiens; for IC50: read-out: IC50 (absolute IC50); for Emax: read-out: MI %
How it was run: as §7

SW620 = assay: as above; type: cell-based; details: Homo sapiens; for IC50: read-out: IC50 (absolute IC50); for Emax: read-out: MI %
How it was run: as §7

HS445 = assay: as above; type: cell-based; details: for IC50: read-out: IC50 (absolute IC50); for Emax: read-out: MI %
How it was run: as §7

THP-1 = assay: as above; type: cell-based; details: Homo sapiens; for IC50: read-out: IC50 (absolute IC50); for Emax: read-out: MI %
How it was run: as §7

SMILES: C[C@H](NP(=O)(OC[C@@H]1C[C@@H](O)[C@H](n2cnc3c(N)ncnc32)O1)Oc1cccc2ccccc12)C(=O)OCc1ccccc1 (stereo partly drawn) [B, (2S)-benzyl 2-(((((2S,4R,5R)-5-(6-amino-9H-purin-9-yl)-4-hydroxytetrahydrofuran-2-yl)methoxy)(naphthalen-1-yloxy)phosphoryl)amino)propanoate]
- IC50 (CCRF-CEM; 72 h): 0.1 to 5 µM
- IC50 (K562 (TdT negative); K562, 72 h): 0.21 µM
- (FD) fold difference compared to Cordycepin = Cordycepin IC50/ProTide IC50 (HL-60 (TdT negative)): (4)
- IC50 (HL-60 (TdT negative); HL-60, 72 h): 2.6 µM
- IC50 (RPMI-8226; RPMI-8226, 72 h): 5 to 15 µM
- IC50 (RL; 72 h): 0.1 to 5 µM
- IC50 (MV4-11; MV4-11, 72 h): 0.1 to 5 µM
- Emax (MV4-11; MV4-11, 72 h): 99%
- IC50 (SW620; SW-620, 72 h): 5 to 15 µM
- IC50 (HS445; Hs 445, 72 h): 5 to 15 µM
- IC50 (THP-1; THP-1, 72 h): 15 to 100 µM

SMILES: COC(=O)C(C)(C)NP(=O)(OC[C@@H]1C[C@@H](O)[C@H](n2cnc3c(N)ncnc32)O1)Oc1cccc2ccccc12 (stereo partly drawn) [E, Methyl 2-(((((2S,4R,5R)-5-(6-amino-9H-purin-9-yl)-4-hydroxytetrahydrofuran-2-yl)-methoxy)(naphthalen-1-yloxy)phosphoryl)amino)-2-methylpropanoate]
- IC50 (CCRF-CEM; 72 h): 15 to 100 µM
- IC50 (K562 (TdT negative); K562, 72 h): 13.9 µM
- (FD) fold difference compared to Cordycepin = Cordycepin IC50/ProTide IC50 (K562 (TdT negative)): (1)
- (FD) fold difference compared to Cordycepin = Cordycepin IC50/ProTide IC50 (HL-60 (TdT negative)): (1)
- IC50 (HL-60 (TdT negative); HL-60, 72 h): 10.2 µM
- IC50 (RPMI-8226; RPMI-8226, 72 h): 15 to 100 µM
- IC50 (RL; 72 h): 5 to 15 µM
- IC50 (MV4-11; MV4-11, 72 h): 5 to 15 µM
- IC50 (SW620; SW-620, 72 h): 15 to 100 µM
- IC50 (HS445; Hs 445, 72 h): 15 to 100 µM
- IC50 (THP-1; THP-1, 72 h): > 100 µM

SMILES: CCOC(=O)CCc1ccccc1OP(=O)(N[C@@H](C)C(=O)OCc1ccccc1)OC[C@@H]1C[C@@H](O)[C@H](n2cnc3c(N)ncnc32)O1 (stereo partly drawn) [F, (2S)-benzyl 2-(((((2S,4R,5R)-5-(6-amino-9H-purin-9-yl)-4-hydroxytetrahydrofuran-2-yl)methoxy)(2-(3-ethoxy-3-oxopropyl)phenoxy)phosphoryl)amino)propanoate]
- IC50 (K562 (TdT negative); K562, 72 h): 6.3 µM
- (FD) fold difference compared to Cordycepin = Cordycepin IC50/ProTide IC50 (K562 (TdT negative)): (2)
- (FD) fold difference compared to Cordycepin = Cordycepin IC50/ProTide IC50 (HL-60 (TdT negative)): (1)
- IC50 (HL-60 (TdT negative); HL-60, 72 h): 8.3 µM
- IC50 (RPMI-8226; RPMI-8226, 72 h): 15 to 100 µM
- IC50 (RL; 72 h): 5 to 15 µM
- Emax (RL; 72 h): 90%
- IC50 (MV4-11; MV4-11, 72 h): 0.1 to 5 µM
- Emax (MV4-11; MV4-11, 72 h): 100%
- IC50 (SW620; SW-620, 72 h): 15 to 100 µM
- Emax (SW620; SW-620, 72 h): 90%
- IC50 (HS445; Hs 445, 72 h): 15 to 100 µM
- IC50 (THP-1; THP-1, 72 h): 15 to 100 µM
- Emax (THP-1; THP-1, 72 h): 100%

SMILES: Nc1ncnc2c1ncn2[C@@H]1O[C@H](COP(=O)(NCC(=O)OCc2ccccc2)Oc2ccccc2)C[C@H]1O (stereo partly drawn) [C, Benzyl 2-(((((2S,4R,5R)-5-(6-amino-9H-purin-9-yl)-4-hydroxytetrahydrofuran-2-yl)methoxy)(phenoxy)phosphoryl)amino)acetate]
- IC50 (CCRF-CEM; 72 h): 5 to 15 µM
- IC50 (RPMI-8226; RPMI-8226, 72 h): 15 to 100 µM
- Emax (RPMI-8226; RPMI-8226, 72 h): 103%
- IC50 (RL; 72 h): 5 to 15 µM
- Emax (RL; 72 h): 100%
- IC50 (MV4-11; MV4-11, 72 h): 5 to 15 µM
- Emax (MV4-11; MV4-11, 72 h): 106%
- IC50 (SW620; SW-620, 72 h): 15 to 100 µM
- Emax (SW620; SW-620, 72 h): 100%
- IC50 (HS445; Hs 445, 72 h): 15 to 100 µM
- Emax (HS445; Hs 445, 72 h): 102%
- IC50 (THP-1; THP-1, 72 h): 15 to 100 µM
- Emax (THP-1; THP-1, 72 h): 99%

SMILES: Nc1ncnc2c1ncn2[C@@H]1O[C@H](CO)C[C@H]1O [Cordycepin, 3′-deoxyadenosine, reference compound]
- IC50 (CCRF-CEM; 72 hr): 15 to 100 µM
- IC50 (K562 (TdT negative); K562, 72 hours, read-out: IC50): 10.9 µM
- IC50 (HL-60 (TdT negative); HL-60, 72 hours, read-out: IC50): 11.4 µM
- IC50 (RPMI-8226; RPMI-8226, 72 hr): > 100 µM
- Emax (RPMI-8226; RPMI-8226, 72 hr): 1%
- IC50 (RL; 72 hr): > 100 µM
- Emax (RL; 72 hr): 17%
- IC50 (MV4-11; MV4-11, 72 hr): > 100 µM
- Emax (MV4-11; MV4-11, 72 hr): 1%
- IC50 (SW620; SW-620, SW620, 72 hr): > 100 µM
- Emax (SW620; SW-620, SW620, 72 hr): 10%
- IC50 (HS445; Hs 445, HS445, 72 hr): > 100 µM
- Emax (HS445; Hs 445, HS445, 72 hr): 2%
- IC50 (THP-1; THP-1, 72 hr): > 100 µM
- Emax (THP-1; THP-1, 72 hr): -3%

SMILES: C[C@H](NP(=O)(OC[C@@H]1CC(O)[C@H](n2cnc3c(N)ncnc32)O1)Oc1ccccc1)C(=O)OCc1ccccc1 (stereo partly drawn) [Compound A, 3′-deoxyadenosine-5′-O-[phenyl(benzyloxy-L-alaninyl)] phosphate]
- IC50 (CCRF-CEM; 72 h): 0.1 to 5 µM
- IC50 (K562 (TdT negative); K562, 72 h): 2.4 µM
- (FD) fold difference compared to Cordycepin = Cordycepin IC50/ProTide IC50 (K562 (TdT negative)): (5)
- (FD) fold difference compared to Cordycepin = Cordycepin IC50/ProTide IC50 (HL-60 (TdT negative)): (3)
- IC50 (HL-60 (TdT negative); HL-60, 72 h): 4.6 µM
- IC50 (RPMI-8226; RPMI-8226, 72 h): 5 to 15 µM
- Emax (RPMI-8226; RPMI-8226, 72 h): 96%
- IC50 (RL; 72 h): 0.1 to 5 µM
- Emax (RL; 72 h): 93%
- IC50 (MV4-11; MV4-11, 72 h): 0.1 to 5 µM
- Emax (MV4-11; MV4-11, 72 h): 99%
- IC50 (SW620; SW-620, 72 h): 15 to 100 µM
- Emax (SW620; SW-620, 72 h): 85%
- IC50 (HS445; Hs 445, 72 h): 15 to 100 µM
- Emax (HS445; Hs 445, 72 h): 98%
- IC50 (THP-1; THP-1, 72 h): 15 to 100 µM
- Emax (THP-1; THP-1, 72 h): 74%
